Data reported in US4226610A, “Herbicidal compounds, preparation thereof and herbicides containing the same” (Meiji Selka Kaisha, Ltd., priority 1978, dated 1980).
Counter-ions that a name gives are not always drawn.

Key:
[1] = system: hedge bindweed; experiment: Experiment 1 foliar application to naturally growing weeds; assay type: in vivo, Calystegis hederacea Wall.; details: 4 months
Source text: (§1) The detail of the assessment made in the following Experiments of the invention was as follows:
(§2) Four months after treatment, evaluation was made for inhibition of reproduction expressed in terms of symbols ranging from (-) to (+++) where (-) means no reproduction, namely complete suppression of reproduction, (±) remarkable suppression of reproduction; (+) considerable suppression of reproduction; (++) medium supprestion of reproduction; and (+++) no suppression of reproduction.
(§3) The compounds of the invention and other compounds for comparison listed in Table 3 were diluted to prescribed concentrations and sprayed to naturally growing weeds by foliar application in an amount of 150 liter per 10 are.
(§4) 0.1% of octylphenyl polyoxyethanol was added as a surfactant.
(§5) The killing index (0, no effect, 5, death) after 21 days, and the reproduction-inhibiting effect (-, no reproduction; +++, maximum reproduction) after 2 months (manna grass and cockspar grass) and 4 months (other weeds) were determined.

[2] = system: warunasubi; experiment: as above; assay type: in vivo, Solanum carolinensis L.; details: 4 months
Source text: as §1, §2, §3, §4, §5

[3] = system: yabugarashi; experiment: as above; assay type: in vivo, Cayratia japonica Houtt.; details: 4 months
Source text: as §1, §2, §3, §4, §5

[4] = system: azumanezasa; experiment: as above; assay type: in vivo, Pleioblastus Chino Makino; details: for Reproduction-inhibiting effect: 4 months; for Killing index of Upperground parts: 21 days
Source text: as §1, §2, §3, §4, §5

[5] = system: manna grass; experiment: as above; assay type: in vivo, Digitaria adsceudes Henr.; details: for Reproduction-inhibiting effect: 2 months
Source text: as §1, §2, §3, §4, §5

[6] = system: torch azalea; experiment: Experiment 3 foliar application to naturally growing shrubs; assay type: in vivo, Rhododendoron Kaempferi Planch.; details: after 3 months
Source text: as §1, §2
(§6) The compounds of the invention and other compounds listed in Table 5. were diluted to prescribed concentrations and sprayed onto naturally growing shrubs by foliar application in an amount of 150 liter per 10 are.
(§7) 0.1% of octylphenyl polyoxyethanol was added as the surfactant. The killing index (0, no effect; 5, death) after 1 month and 3 months, and the reproduction-inhibiting effect (-, no reproduction; +++, maximum reproduction) after 3 months were determined.

[7] = system: white clover; experiment: Experiment 1 foliar application to naturally growing weeds; assay type: in vivo, Trifolium repens L.; details: for Reproduction-inhibiting effect: 4 months
Source text: as §1, §2, §3, §4, §5

[8] = system: lace shrub; experiment: Experiment 3 foliar application to naturally growing shrubs; assay type: in vivo, Stephanandra incisa Zabel; details: for Reproduction-inhibiting: after 3 months; for Killing index: after 30 days
Source text: as §1, §2, §6, §7

[9] = system: eulalia; experiment: Experiment 2 foliar application in Japanese cypress afforested land; assay type: in vivo, Miscanthus sinensis Andress.; parameters: key: 0 = no effect, 5 = death; details: 0.125%
Description: as §1
(§8) The compounds of the invention and other compounds listed in Table 4. were diluted to prescribed concentrations and sprayed to shrubs by foliar application in a Japanese cypress afforested land in an amount of 150 liter per 10 are.
(§9) After 30 days and 3 months, the killing index (0, no effect; 5, death) was determined.
(§10) The heights of plants were 50-70 cm. for Japanese cypress, about 50 cm. for chestnut, 50-90 cm. for miyakozasa, about 100 cm. for eulalia and 70-100 cm. for kumaichigo, respectively.

[10] = system: purple nutsedge; experiment: Experiment 1 foliar application to naturally growing weeds; assay type: in vivo, Cyperus rotundus L.; details: 4 months
Source text: as §1, §2, §3, §4, §5

[11] = system: Japanese prickly ash; experiment: Experiment 3 foliar application to naturally growing shrubs; assay type: in vivo, Xanthoxylum piperitum DC.; details: after 3 months
Source text: as §1, §2, §6, §7

[12] = system: kumaichigo; experiment: Experiment 2 foliar application in Japanese cypress afforested land; assay type: in vivo, Rubus crataegifolius Bunge; details: 0.125%, after 30 days
Description: as §1, §8, §9, §10

[13] = system: cockspar grass; experiment: Experiment 1 foliar application to naturally growing weeds; assay type: in vivo, Echinochloa Crusgalli P. Beauv.; details: for Reproduction-inhibiting effect: 2 months
Source text: as §1, §2, §3, §4, §5

[14] = system: chigaya; experiment: as above; assay type: in vivo, Imperata cylindrica Beauv.; details: 4 months
Source text: as §1, §2, §3, §4, §5

[15] = system: Japanese bush cranberry; experiment: Experiment 3 foliar application to naturally growing shrubs; assay type: in vivo, Viburnum dilatatum Thunb.; details: for Reproduction-inhibiting: after 3 months
Source text: as §1, §2, §6, §7

[16] = system: oak; experiment: as above; assay type: in vivo, Quercus serrata Thunb; details: after 3 months
Source text: as §1, §2, §6, §7

[17] = system: yamazakura; experiment: as above; assay type: in vivo, Prunus donarium Sieb. var. spontanae Makino; details: after 3 months
Source text: as §1, §2, §6, §7

[18] = system: kiichigo; experiment: as above; assay type: in vivo, Rubus palmatsu Thunb. forma coptophyllus Makino
Source text: as §1, §2, §6, §7

[19] = system: water hyacinth; experiment: Experiment 5 foliar application to water hyacinths; assay type: in vivo, Eichhornia crassipes Solms; details: 3 months
Source text: as §1, §2
Water was placed in 20 cm.×30 cm. plastic vessels and a liquid fertilizer was added thereto. Two water hyacinths were floated in each vessel.
0.1 or 0.2% aqueous solutions of each of the compounds of the invention listed in Table 7 were sprayed by foliar application in an amount of 100 liter per 10 are. As a surfactant, 0.1% of octylphenyl polyoxyethanol was added.
The killing index (0, no effect; 5, death) after 21 days and 3 months, and the reproduction-inhibiting effect (-, no reproduction; +++, maximum reproduction) after 3 months were determined.

[20] = 0.05%, after 3 months, monosodium salt

CP(=O)(O)CC[C@H](N)C(=O)O [L-2-Amino-4-methylphosphinobutanoic acid monodiethanolammoni] [L-2-Amino-4-methylphosphinobutanoic acid monodiethanolammonium salt]
Reproduction-inhibiting effect ([1]; 0.05%): +++
Reproduction-inhibiting effect ([1]; 0.1%): ++
Reproduction-inhibiting effect ([1]; 0.2%): +
Reproduction-inhibiting effect ([2]; 0.05%): +++
Reproduction-inhibiting effect ([2]; 0.1%): +
Reproduction-inhibiting effect ([2]; 0.2%): ±
Reproduction-inhibiting effect ([3]; 0.05%): ++
Reproduction-inhibiting effect ([3]; 0.1%): +
Reproduction-inhibiting effect ([3]; 0.2%): ±
Reproduction-inhibiting effect ([4]; 0.05%): ++
Reproduction-inhibiting effect ([4]; 0.1%): -
Reproduction-inhibiting effect ([4]; 0.2%): -
Reproduction-inhibiting effect ([5]; 0.05%): ++
Reproduction-inhibiting effect ([5]; 0.1%): -
Reproduction-inhibiting effect ([5]; 0.2%): -
Reproduction-inhibiting ([6]; 0.05%): +++
Reproduction-inhibiting ([6]; 0.1%): -
Reproduction-inhibiting ([6]; 0.2%): -
Reproduction-inhibiting effect ([7]; 0.05%): +++
Reproduction-inhibiting effect ([7]; 0.1%): -
Reproduction-inhibiting effect ([7]; 0.2%): -
Reproduction-inhibiting ([8]; 0.05%): ++
Killing index ([8]; 0.05%): 3.5
Reproduction-inhibiting ([8]; 0.1%): -
Reproduction-inhibiting ([8]; 0.2%): -
Killing index ([9]; after 30 days): 3.5
Reproduction-inhibiting effect ([10]; 0.05%): +++
Reproduction-inhibiting effect ([10]; 0.1%): +
Reproduction-inhibiting effect ([10]; 0.2%): ±
Reproduction-inhibiting ([11]; 0.05%): +++
Killing index ([11]; 0.1%): 4.5
Reproduction-inhibiting ([11]; 0.1%): ±
Reproduction-inhibiting ([11]; 0.2%): -
Killing index [12]: 4.5
Reproduction-inhibiting effect ([13]; 0.05%): ++
Reproduction-inhibiting effect ([13]; 0.1%): -
Reproduction-inhibiting effect ([13]; 0.2%): -
Reproduction-inhibiting effect ([14]; 0.05%): ++
Reproduction-inhibiting effect ([14]; 0.1%): -
Reproduction-inhibiting effect ([14]; 0.2%): -
Reproduction-inhibiting ([15]; 0.05%): +++
Reproduction-inhibiting ([15]; 0.1%): ++
Killing index ([15]; 0.1%, after 30 days): 4.5
Reproduction-inhibiting ([15]; 0.2%): -
Reproduction-inhibiting ([16]; 0.05%): ++
Reproduction-inhibiting ([16]; 0.1%): -
Reproduction-inhibiting ([16]; 0.2%): -
Reproduction-inhibiting ([17]; 0.05%): ++
Reproduction-inhibiting ([17]; 0.1%): -
Reproduction-inhibiting ([17]; 0.2%): -
Reproduction-inhibiting ([18]; 0.05%, after 3 months): ++
Killing index ([18]; 0.05%, after 30 days): 3.5
Reproduction-inhibiting ([18]; 0.1%, after 3 months): -
Reproduction-inhibiting ([18]; 0.2%, after 3 months): -

CP(=O)(O)CC[C@H](N)C(=O)O [L-2-Amino-4-methylphosphinobutanoic acid monosodium salt]
Reproduction-inhibiting effect ([1]; 0.05%, monosodium salt): +++
Reproduction-inhibiting effect ([1]; 0.1%, monosodium salt): ++
Reproduction-inhibiting effect ([1]; 0.2%, monosodium salt): +
Reproduction-inhibiting effect ([2]; 0.05%, monosodium salt): +++
Reproduction-inhibiting effect ([2]; 0.1%, monosodium salt): +
Reproduction-inhibiting effect ([2]; 0.2%, monosodium salt): ±
Reproduction-inhibiting effect ([3]; 0.05%, monosodium salt): ++
Reproduction-inhibiting effect ([3]; 0.1%, monosodium salt): +
Reproduction-inhibiting effect ([3]; 0.2%, monosodium salt): ±
Reproduction-inhibiting effect ([4]; 0.05%, monosodium salt): ++
Killing index of Upperground parts ([4]; 0.05%, monosodium salt): 2.5
Reproduction-inhibiting effect ([4]; 0.1%): -
Killing index of Upperground parts ([4]; 0.1%, monosodium salt): 4.5
Reproduction-inhibiting effect ([4]; 0.2%): -
Reproduction-inhibiting effect ([19]; 0.1%, listed as L-AMPB monosodium salt, monosodium salt): ±
Reproduction-inhibiting effect ([19]; 0.2%): -
Reproduction-inhibiting effect ([5]; 0.05%, monosodium salt): ++
Reproduction-inhibiting effect ([5]; 0.1%, monosodium salt): ±
Killing index of Upperground parts ([5]; 0.1%, 21 days, monosodium salt): 4.5
Reproduction-inhibiting effect ([5]; 0.2%): -
Reproduction-inhibiting ([6]; 0.05%, monosodium salt): +++
Reproduction-inhibiting ([6]; 0.1%): -
Reproduction-inhibiting ([6]; 0.2%): -
Reproduction-inhibiting effect ([7]; 0.05%, monosodium salt): +++
Reproduction-inhibiting effect ([7]; 0.1%, monosodium salt): +
Killing index of Upperground parts ([7]; 0.1%, 21 days, monosodium salt): 4.5
Reproduction-inhibiting effect ([7]; 0.2%): -
Reproduction-inhibiting ([8]; 0.05%, monosodium salt): ++
Killing index ([8]; 0.05%, monosodium salt): 3.5
Reproduction-inhibiting ([8]; 0.1%): -
Reproduction-inhibiting ([8]; 0.2%): -
Killing index ([9]; after 3 months, monosodium salt): 4.5
Killing index ([9]; after 30 days, monosodium salt): 3.5
Reproduction-inhibiting effect ([10]; 0.05%, monosodium salt): +++
Reproduction-inhibiting effect ([10]; 0.1%, monosodium salt): +
Reproduction-inhibiting effect ([10]; 0.2%, monosodium salt): ±
Reproduction-inhibiting ([11]; 0.05%, monosodium salt): +++
Reproduction-inhibiting ([11]; 0.1%, monosodium salt): +
Reproduction-inhibiting ([11]; 0.2%): -
Killing index ([12]; monosodium salt): 4.5
Reproduction-inhibiting effect ([13]; 0.05%, monosodium salt): ++
Reproduction-inhibiting effect ([13]; 0.1%, monosodium salt): ±
Killing index of Upperground parts ([13]; 0.1%, 21 days, monosodium salt): 4.5
Reproduction-inhibiting effect ([13]; 0.2%): -
Reproduction-inhibiting effect ([14]; 0.05%, monosodium salt): ++
Reproduction-inhibiting effect ([14]; 0.1%): -
Reproduction-inhibiting effect ([14]; 0.2%): -
Reproduction-inhibiting ([15]; 0.05%, monosodium salt): +++
Reproduction-inhibiting ([15]; 0.1%, monosodium salt): ++
Reproduction-inhibiting ([15]; 0.2%): -
Reproduction-inhibiting ([16]; 0.05%, monosodium salt): ++
Reproduction-inhibiting ([16]; 0.1%): -
Reproduction-inhibiting ([16]; 0.2%): -
Killing index ([17]; 0.05%, monosodium salt): 1.5
Reproduction-inhibiting ([17]; 0.05%, monosodium salt): ++
Reproduction-inhibiting ([17]; 0.1%): -
Reproduction-inhibiting ([17]; 0.2%): -
Killing index [18, 20]: 1.5
Reproduction-inhibiting [18, 20]: ++
Killing index ([18]; 0.05%, after 30 days, monosodium salt): 3.5
Reproduction-inhibiting ([18]; 0.1%, after 3 months): -
Reproduction-inhibiting ([18]; 0.2%, after 3 months): -
